{"source": "patent US20100324285A1", "about": "“ANTIINFLAMMATORY AGENT COMPRISING 2-AMINOPHENOL OR DERIVATIVE THEREOF AS ACTIVE INGREDIENT” (priority 2006, published 2010)", "key": {"[1]": {"tested_on": "Mouse melanoma cell line B16", "test": "Melanin synthesis in B16 cells", "type": "cell-based", "details": "5 days, per mg protein versus control", "experimental": "As control, a system with no test sample was provided. […] The amount of protein was measured by conventional Bradfordmethod and the amount of melanin per 1 mg of protein was calculated. The amount of melanin (%) was calculated according to Formula 4, and the living cell rate (%) was calculated according to Formula 5.\nAs control, a system with no test sample was provided. […] The amount of protein was measured by conventional Bradford method and the amount of melanin per 1 mg of protein was calculated. The amount of melanin (%) was calculated according to Formula 4."}, "RAW264.7 cells": {"tested_on": "RAW264.7 cells", "test": "NO production by macrophage RAW264.7, Griess method", "type": "cell-based, mouse", "details": "LPS + IFN-γ, 2 days, relative level versus control", "text": "As macrophage cells, RAW264.7 cell strain from mouse or macrophage cells obtained from laboratory animals such as mouse can be used. The amount of produced NO can be measured by conventional Griess method. […] RAW264.7 cells, a murine macrophage cell strain, were suspended in PRMI1640 medium supplied with 10% (v/v) fetal calf serum (hereinafter abbreviated as “FCS”) to give a cell suspension with a cell concentration of 1×10^6 cells/ml. […] The experimental system without the test samples described above was set as control. […] NO production, PGE2 production and macrophage growth are indicated as relative levels versus controls."}, "RBL-2H3": {"tested_on": "RBL-2H3", "test": "Degranulation reaction of basocyte (β-hexosaminidase release)", "type": "cell-based, rat", "experimental": "Degranulation rate (%) and inhibition rate of degranulation (%) were calculated based on the measurements of β-hexosaminidase activity in the granules released from the cells by degranulation reaction.\nRat cancer cells from basocyte RBL-2H3(catalognumber“JCRB0023”, commercialized by Health Science Research Resources Bank of Japan Health Sciences Foundation), known to be degranulated by cross-linkage of IgE, were used after cultured in a MEM medium (commercialized by Nissui Pharmaceutical Co., Ltd.) supplemented with 10% (v/v) FCS.\nThe above cells were recovered from a flask by conventional trypsin-EDTA treatment, then suspended in a MEM medium supplemented with 10% (v/v) FCS to give a cell concentration of 5×10^5 cells/ml. The suspension was inoculated to a 24-well microplate in a volume of 400 μl per well, cultured in a 5% (v/v) carbon dioxide incubator for 3 to 5 hours, then admixed with 0.625 μg/ml of anti dinitrophenol (hereinafter abbreviated as “DNP”) mouse IgE (commercialized by Sigma-Aldrich, Inc., diluted by MEM medium supplied with 10% (v/v) FCS) in a volume of 100 μl per well to sensitize the cells by IgE (a final concentration of the anti DNP-IgE was 0.125 μg/ml). After the cells were cultured in the 5% (v/v) carbon dioxide incubator overnight, the supernatant was removed by suction, and then each well was washed twice with Siraganian buffer (119 mM NaCl, 5 mM KCl, 0.4 mM MgCl2, 25 mM piperazine-N,N″-bis(2-ethane sulfonic acid) (PIPES), 40 mM NaOH, pH 7.2) by 500 μl per well. After admixed with Siraganian buffer containing 0.1% bovine serum albumin (BSA), 5.6 mM glucose and 1 mM CaCl2 (hereinafter described as “BSA-containing Siraganian buffer) in a volume of 160 μl per well, the microplate was warmed at 37° C. for 15 minutes. As test samples, 2-aminophenoxazine-3-one (questiomycin A), arbutin having skin-whitening effect and oxatomide used as therapeutic agents for allergic diseases (positive control) were diluted with BSA-containing Siraganian buffer to give the concentrations shown in Table 3, any of the test samples was added by 20 μl per well, then the microplate was warmed at 37° C. for 15 minutes (wells with the test samples). The well with any of the test samples was admixed with DNP-albumin (commercialized by Sigma-Aldrich, Inc.) diluted with BSA-containing Siraganian buffer to give a concentration of 50 μg/ml by 20 μl per well, and warmed at 37° C. for 15 minutes. After the 24-well microplate was cooled on ice for 10 minutes, the supernatant was collected and 100 μl thereof was injected into a 96-well microplate to measure the β-hexosaminidase activity in the supernatant. As negative control, BL-2H3 cells were cultured and treated in the same way as the wells admixed with the test samples except for that FCS-supplemented MEM medium containing no antibody was used, and the β-hexosaminidase activity in the supernatant was measured (the well without IgE sensitization). After the supernatants were removed from some of the wells without IgE sensitization, the wells were washed twice with BSA-containing Siraganian buffer and admixed with BSA-containing Siraganian buffer by 200 μl per well. The cells were broken by twice repeating freezing at −80° C. and thawing, whole medium containing the broken cells was collected, centrifuged at 1,500 rpm for 10 minutes, and then 100 μl of the supernatant was injected into a 96-well microplate to measure the β-hexosaminidase activity of the whole granule extract.\nEach well of the 96-well microplate injected with any of the supernatant from the wells with the test samples, the supernatant from the wells without IgE sensitization or the whole granule extract described above was admixed with 50 μl of citrate buffer (pH 4.5) containing 1 mM 4-nitrophenyl-N-acetyl-β-glucosaminide (PNAG) as substrate, kept at 37° C. for 1 hour, and then the reaction was stopped by adding 50 μl of 0.1 M sodium carbonate (pH 10.5). […]"}, "[2]": {"tested_on": "NHDF, normal fibroblast from human fetus", "test": "Cytopathic test, alamar Blue", "type": "cell-based", "details": "6 days; for Cell survival rate (%), AA-2G free: no AA-2G; for Cell survival rate (%), AA-2G addition: with AA-2G", "experimental": "Cells were cultured with test samples and D-MEM medium supplemented with 10 (v/v) % FCS with or without AA-2G for 6 days by the same method as above, and the supernatant was removed, washed with phosphate buffered saline (PBS(−)), and admixed with alamar Blue (commercialized by TREK Diagnostic Systems, Inc.), which had been diluted by 10-fold with D-MEM medium in a volume of 200 μl per well. After culturing at 37° C. for 90 minutes, the fluorescence intensity (exciting light: 544 nm, fluorescence: 590 nm) was measured. The cell survival rate (%) was calculated by dividing the fluorescence intensity of a well with a test sample by the fluorescence intensity of a well with a control sample, and multiplying by 100."}}, "data": [{"compound": "Nc1cc2nc3ccccc3oc-2cc1=O", "note": "[2-Aminophenoxazine-3-one, 2-aminophenoxazine-3-one]", "values": [{"measurement": "Amount of melanin (%)", "setting": "[1]; 0.5 μM", "result": 74, "unit": "%"}, {"measurement": "Amount of melanin (%)", "setting": "[1]; 1 μM", "result": 69, "unit": "%"}, {"measurement": "Amount of melanin (%)", "setting": "[1]; 2 μM", "result": 61, "unit": "%"}, {"measurement": "NO production (%)", "setting": "RAW264.7 cells; 0.16 μM", "result": 85, "unit": "%"}, {"measurement": "NO production (%)", "setting": "RAW264.7 cells; 0.31 μM", "result": 78, "unit": "%"}, {"measurement": "NO production (%)", "setting": "RAW264.7 cells; 0.63 μM", "result": 70, "unit": "%"}, {"measurement": "NO production (%)", "setting": "RAW264.7 cells; 1.3 μM", "result": 54, "unit": "%"}, {"measurement": "NO production (%)", "setting": "RAW264.7 cells; 2.5 μM", "result": 32, "unit": "%"}, {"measurement": "NO production (%)", "setting": "RAW264.7 cells; 5.0 μM", "result": 19, "unit": "%"}, {"measurement": "NO production (%)", "setting": "RAW264.7 cells; 10 μM", "result": 14, "unit": "%"}, {"measurement": "inhibition at 0.63 µM", "setting": "RBL-2H3; Rattus norvegicus, RBL-2H3, 0.63 μM, read-out: Inhibition intensity of degranulation", "result": "-30 to 30", "unit": "%"}, {"measurement": "inhibition at 5 µM", "setting": "RBL-2H3; Rattus norvegicus, RBL-2H3, 5 μM, read-out: Inhibition intensity of degranulation", "result": "30 to 50", "unit": "%"}, {"measurement": "inhibition at 10 µM", "setting": "RBL-2H3; Rattus norvegicus, RBL-2H3, 10 μM, read-out: Inhibition intensity of degranulation", "result": "≥ 50", "unit": "%"}, {"measurement": "inhibition at 23 µM", "setting": "RBL-2H3; Rattus norvegicus, RBL-2H3, 23 μM, read-out: Inhibition intensity of degranulation", "result": "≥ 50", "unit": "%"}, {"measurement": "inhibition at 31.3 µM", "setting": "RBL-2H3; Rattus norvegicus, RBL-2H3, 31.3 μM, read-out: Inhibition intensity of degranulation", "result": "≥ 50", "unit": "%"}, {"measurement": "inhibition at 40 µM", "setting": "RBL-2H3; Rattus norvegicus, RBL-2H3, 40 μM, read-out: Inhibition intensity of degranulation", "result": "≥ 50", "unit": "%"}, {"measurement": "concentration at which inhibiting activity on degranulation was exerted", "setting": "RBL-2H3; summary of Table 3", "result": "≥ 5", "unit": "µM"}, {"measurement": "Cell survival rate (%), AA-2G free", "setting": "[2]; QA 0.125 μM", "result": 101, "unit": "%"}, {"measurement": "Cell survival rate (%), AA-2G addition", "setting": "[2]; QA 0.125 μM", "result": 100, "unit": "%"}, {"measurement": "Cell survival rate (%), AA-2G free", "setting": "[2]; QA 0.25 μM", "result": 103, "unit": "%"}, {"measurement": "Cell survival rate (%), AA-2G addition", "setting": "[2]; QA 0.25 μM", "result": 100, "unit": "%"}, {"measurement": "Cell survival rate (%), AA-2G free", "setting": "[2]; QA 0.5 μM", "result": 99, "unit": "%"}, {"measurement": "Cell survival rate (%), AA-2G addition", "setting": "[2]; QA 0.5 μM", "result": 92, "unit": "%"}, {"measurement": "Cell survival rate (%), AA-2G free", "setting": "[2]; QA 1.0 μM", "result": 92, "unit": "%"}, {"measurement": "Cell survival rate (%), AA-2G addition", "setting": "[2]; QA 1.0 μM", "result": 79, "unit": "%"}, {"measurement": "Cell survival rate (%), AA-2G free", "setting": "[2]; QA 2.0 μM", "result": 88, "unit": "%"}, {"measurement": "Cell survival rate (%), AA-2G addition", "setting": "[2]; QA 2.0 μM", "result": 73, "unit": "%"}]}]}
